Measurements reported in EP0728012B1, “NOVEL GnRH ANALOGUES WITH ANTITUMOUR EFFECTS AND PHARMACEUTICAL COMPOSITIONS THEREOF” (Lovas, Sandor, priority 1994, dated 1996).

Tests used:
[1] = system: Ishikawa human endometrium carcinoma cell line; assay: Inhibition of colony formation (dose-survival relation, Example 18); assay type: cell-based; conditions: for inhibition of colony formation: 30 to 50 µM
[2] = system: MCF-7 human mammary carcinoma cell line; assay: as above; assay type: cell-based; conditions: treated once
[3] = system: MDA-MB-231 human mammary carcinoma cell line; assay: as above; assay type: cell-based
[4] = system: PC3 human prostate carcinoma cell line; assay: as above; assay type: cell-based; conditions: for inhibition of colony formation: 30 to 50 µM
human tumour cell lines = assay: Inhibition of colony formation (Example 18), cell line not given; assay type: cell-based; conditions: 50 µM of the active substance; cell line not stated
Procedure: The investigation gives a precise information about the cell-damaging effect of the tested substance. In the case of cytostatics the cell-damaging effect is not cell-specific. […] One part of the arrested cells again go into the cycle, the other part may perish (apoptosis). […] The investigations were carried out on MCF-7 and MDA-MB-231 human mammary carcinoma cell lines, PC3 human prostate 15 carcinoma cell line and Ishikawa human endometrium carcinoma cell line. Three hundred cells were set into Petri dishes of 3.5 cm in diameter each. The treatment was carried out once, 24 hours following the explantation, then the colonies formed were counted after 9 to 12 days.

MCF-7 xenograft = assay: In vivo antitumour effect on MCF-7 xenograft in immunosuppressed mice; set-up: species or system CBA/Ca mice; conditions: for rate of tumour growth / decrease in the tumour volume in comparison to controls: first study; for rate of tumour growth: conjugates 150 µg in every 3rd day, P-GFLG-OH daily s.c.; for decrease in the tumour volume in comparison to controls: end of 4th week, MI-1892 2 x 25 µg daily, conjugates 50 µg daily once; for tumour volume: 4th week of treatment; for Tumour volume as control (%): conjugates 1 x 50 µg; for Inhibition % (tumour growth): daily s.c.; for Volume (cm^3) of tumours / Weight (g) of tumours: after 6 week treatment, xenograft not given
Procedure: The immunosuppression of mice was carried out by using the method of Steel et al. [Br. J. Cancer, 37, 224-230 (1978)]. Immunosuppression and xeno-transplantation
CBA-Ca female mice of about 6 weeks old were thymectomized and then, after one week, they were irradiated with 60Co (whole body irradiation; the lethal dose is 9.5 Gray). Within 24 hours 3 to 5 x 10^5 myelocytes were injected into the animals. Beneath the skin of the immunosuppressed mice 2 x 10^7 tumour cells or, in the case of later passages, […] were implanted. […] The treatment with steroid hormone was stopped by at least one week before beginning the investigation.
In the case of MCF-7 tumours (xenografts) the examinations were carried out with passages being in the phase of the 37th and 38th, respectively, transplantations.
In the case of mice bearing MCF-7 xenograft, the treatment was begun in the 4th week following xeno-transplantation.
Recent investigations have begun on 28 animals bearing MCF-7 xenograft and on 28 animals bearing MDA-MB-231 xenograft. On animals bearing MCF-7 tumour the treatment was commenced in the 5th week following xeno-transplantation; the tumour volume was 205 to 225 mm^3. On animals bearing MDA-MB-231 tumour, the treatment was started in the 4th week after xeno-transplantation with a tumour volume of 140 to 150 mm^3. […] The control groups were daily treated with physiological saline s.c. (Each treated group consisting of 7 animals).

humoral immune response = assay: Humoral immune response (antibody production of B-lymphocytes); assay type: in vivo; conditions: mice; dose not stated
Description: (§1) The immunosuppressive side effect of cytostatics used in tumour therapy is commonly known. This effect can be compensated to a certain grade by various immunostimulants (endotoxin, levamisole). Polypeptides with much […] molecular weights (about 40,000 to 80,000) are also capable of protecting against immunosuppressive effect [Gaál et al: J. Biol. Resp. Modif., 5, 148-159 (1986)]. The molecular weight of the novel polyanionic P-GFLG-OH macromolecule tested by us is about 10,000, that of MI-1892 is about 2000, i.e. relatively low; therefore, their immunostimulatory activity was unexpected.

cellular immune response = assay: Cellular immune response (rosette formation against BRBC antigen); assay type: in vivo; conditions: mice; dose not stated
Description: as §1

[5] = Castration effect: uterus weight of xenograft-bearing animals; assay type: in vivo, mice; conditions: animals bearing MCF-7 xenografts; treatment for four weeks
Description: The castration effect is illustrated by the following data.

[6] = MCF-7 xenograft, treatment week 2
[7] = MCF-7 xenograft, treatment week 4
[8] = MCF-7 xenograft, treatment week 6, MI-1892 2 x 25 µg

Row | Substance | inhibition of colony formation [1] [%] | % Inhibition of colony formation ([2]; 10 µM (active substance)) [%] | % Inhibition of colony formation ([2]; 50 µM (active substance)) [%] | % Inhibition of colony formation ([3]; 10 µM) [%] | % Inhibition of colony formation ([4]; 10 µM) [%] | inhibition of colony formation [4] [%] | inhibition on the colony formation / survival of the cells (human tumour cell lines) [%] | rate of tumour growth (MCF-7 xenograft; MCF-7 xenograft) | decrease in the tumour volume in comparison to controls (MCF-7 xenograft; MCF-7 xenograft) [%] | tumour volume (MCF-7 xenograft; MCF-7 xenograft) [cm^3] | Tumour volume as control (%) (MCF-7 xenograft; [6]) | Inhibition % (tumour growth) (MCF-7 xenograft; [7]) [%] | Tumour volume as control (%) (MCF-7 xenograft; [8]) | Volume (cm^3) of tumours (MCF-7 xenograft) [cm^3] | Weight (g) of tumours (MCF-7 xenograft) [g] | other results
1 | Ac-D-Trp^1,3,D-Cpa^2, {Lys[n-poly(N-vinyl pyrrolidone-co-maleic acid)-Gly-Phe-Leu-Gly-]}^5, [a-Asp(DEA)]^6, D-Ala^10-GnRH [P-GFLG-1892] | 100 | 60 | 93 | 92 | 86 | 100 | 100 | not influenced | 30 | 2.428 | 70 | 37 | 57 | 4.327 ± 0.379 | 4.0 ± 0.9 | % Inhibition of colony formation ([1]; 10 µM): 72%; % Inhibition of colony formation ([1]; 30 µM): 100%; % Inhibition of colony formation ([3]; 30 µM): 100%; Inhibition % (tumour growth) (MCF-7 xenograft; MCF-7 xenograft, treatment week 2, listed as 5. P-GFLG-1892): 30%; Inhibition % (tumour growth) (MCF-7 xenograft; MCF-7 xenograft, treatment week 6, listed as 5. P-GFLG-1892): 43%; increase of the humoral immune response (humoral immune response): possesses an immunostimulatory effect; increase of the cellular immune response (cellular immune response): two-fold
2 | Ac-D-Trp^1,3,D-Cpa^2,{Lys(n-poly-(N-vinylpyrrolidone-co-maleic acid)-Gly-Phe-Leu-Gly]}^6,D-Ala^10-GnRH [P-GFLG-1544] | 100 | 85 | 100 | 80 | 100 | 100 | 100 | not influenced | 30 | 1.806 | 70 | 49 | 51 | 3.502 ± 0.321 | 4.8 ± 0.8 | % Inhibition of colony formation ([1]; 50 µM): 100%; % Inhibition of colony formation ([3]; 50 µM): 100%; % Inhibition of colony formation ([4]; 50 µM): 100%; tumour-free animals (MCF-7 xenograft; MCF-7 xenograft, 6th week): a tumour-free animal was found; Inhibition % (tumour growth) (MCF-7 xenograft; MCF-7 xenograft, treatment week 2, listed as 6. P-GFLG-1544): 30%; Inhibition % (tumour growth) (MCF-7 xenograft; MCF-7 xenograft, treatment week 6, listed as 6. P-GFLG-1544): 49%; uterus weight [5]: 0.1149 ± 0.0110 g
